Measured values published in patent US11779551B1 (priority 2022, dated 2023).

Tests used:
human lymphoblast cells [1] = test system: human lymphoblast cells
human lymphoblast cells [2] = assay type: cell-based

SMILES	effect on cytotoxicity of PbTx-2 (LDH activity) (human lymphoblast cells [1])	reduction of PbTx-2 cytotoxicity (human lymphoblast cells [1])	effect on redox state of the proteome (human lymphoblast cells [2])
NCCS [cysteamine]	significantly reduced cytotoxicity	–	–
O=S(=O)(O)CCS [MESNA, sodium mercaptoethyl sulfonate]	significantly reduced cytotoxicity	approximately 50%	restored to control levels
